Reference: patent US9233978B2, “6-fused heteroaryldihydropyrimidines for the treatment and prophylaxis of hepatitis B virus infection” (Hoffmann-La Roche Inc., priority 2014, dated 2016)
Converted amounts (≈) assume the structure as drawn.

Key:
[1] = Human microsomal metabolic stability; type: in vitro ADME; settings: human microsomes 0.5 mg/mL, 1 μM test compound, NADPH, 37° C., pH 7.4, 0-30 minutes
Summary of the method: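 1 μM compound with 0.5 mg/mL human liver microsomal protein in 100 mM phosphate pH 7.4 at 37° C, started with 1 mM NADPH or a NADPH-regenerating system. Sampled at 0–30 min, quenched in cold methanol with tolbutamide internal standard; remaining parent quantified by LC-MS/MS.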

[2] = Cytotoxicity in HepDE19 cells (CCK-8) and selectivity index; type: cell-based; settings: human, HepDE19 cells; CCK-8 cell viability; five days after treatment
Source text: (§1) HepG2.2.15 and HepDE19 are stably-transfected cell lines containing the HBV genome. Both cell lines are derived from the hepatoblastoma cell line Hep G2 (American Type Culture Collection, ATCC® HB-8065™) by the published procedures described in references: MA Selles et al. Proc. Natl. Acad. Sci. USA 1987, 84, 1005-1009 and H Guo et al. Journal of Virology 2007, 81, 12472-12484, respectively. Both cell lines were maintained in Dulbecco's modified Eagle's medium (DMEM)-F12 medium supplemented with 10% fetal bovine serum, 100 U/mL penicillin, 100 μg/mL streptomycin, and 0.5 mg/mL of G418.
(§2) HepDE19 cells were seeded into 96-well plates (5×10^3 cells per well) and treated with compounds for EC50 determination. Five days after treatment, cell viability was measured by addition of 20 μL of CCK-8 reagent. Two hours after incubation at 37° C., the absorbance at wavelengths of 450 nm and 630 nm (OD450 and OD630) was recorded by a plate reader. The concentration results in the death of 50% of the host cells (CC50) of each compound were determined.
(§3) The relative effectiveness of the compound in inhibiting viral replication compared to inducing cell death was defined as the selectivity index (CC50 value/EC50 value). Based on CC50 and EC50 data, selectivity indexes were determined.

HepDE19 cells = assay: as above; type: cell-based; settings: CC50 (HepDE19) value / EC50 (HepG2.2.15) value
Source text: as §1, §2, §3

Lysa solubility = type: physicochemical; settings: 0.05 M phosphate buffer (pH 6.5); for solubility thermodynamic: phosphate buffer, pH 6.5, aqueous buffer, thermodynamic from solid
Summary of the method: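 Duplicate samples dried from 10 mM DMSO stocks, taken up in 0.05 M phosphate buffer pH 6.5, stirred 1 h, shaken 2 h and left overnight. Filtrate and 1/10 dilution quantified by direct UV or HPLC-UV, in μg/mL; above 80% of the calculated maximum, reported as greater than that value.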

HBV = assay: Anti-HBV activity in vitro, HepG2.2.15 cells, extracellular HBV DNA by qPCR; type: cell-based; settings: Hepatitis B virus, HepG2.2.15, 120 h, HepG2.2.15 cells; HBV replication inhibited by 50%, extracellular HBV DNA by qPCR; five days after compound treatment; read-out: EC50
Summary of the method: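 HBV-producing HepG2.2.15 cells were seeded and left overnight at 37 °C, then treated with half-log serial compound dilutions at a final 0.5% DMSO. After 5 days, viral DNA was extracted from the supernatant and extracellular HBV DNA was quantified by qPCR.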

Structure (SMILES): COC(=O)C1=C(CN2CCN3C(=O)N(C4CCC(C(=O)O)C4)C[C@@H]3C2)NC(c2nccs2)=N[C@H]1c1ccc(F)cc1Cl (mixture of isomers) [Example 61, (R)-6-[(S)-2-((1R,3S)-3-Carboxy-cyclopentyl)-3-oxo-hexahydro-imidazo[1,5-a]pyrazin-7-ylmethyl]-4-(2-chloro-4-fluoro-phenyl)-2-thiazol-2-yl-1,4-dihydro-pyrimidine-5-carboxylic acid methyl ester and (R)-6-[(S)-2-((1S,3R)-3-Carboxy-cyclopentyl)-3-oxo-hexahydro-imidazo[1,5-a]pyrazin-7-ylmethyl]-4-(2-chloro-4-fluoro-phenyl)-2-thiazol-2-yl-1,4-dihydro-pyrimidine-5-carboxylic acid methyl ester]
- Human Microsomal Clearance [1]: 0.4 mL/min/kg
- CC50 at 5 days [2]: > 100000 nM
- Selectivity index (CC50/EC50) (HepDE19 cells): >8333
- solubility thermodynamic (Lysa solubility): > 742 µg/mL
- EC50 (HBV): 12 nM

Structure (SMILES): CCOC(=O)C1=C(CN2CCN3C(=O)CC[C@@H]3[C@H]2C(=O)O)NC(c2nccs2)=N[C@H]1c1cccc(F)c1Cl (racemic) [Example 99, 2-[[(4R)-4-(2-chloro-3-fluoro-phenyl)-5-ethoxycarbonyl-2-thiazol-2-yl-1,4-dihydropyrimidin-6-yl]methyl]-6-oxo-1,3,4,7,8,8a-hexahydropyrrolo[1,2-a]pyrazine-1-carboxylic acid]
- Human Microsomal Clearance [1]: 6.1 mL/min/kg
- CC50 at 5 days [2]: > 100000 nM
- Selectivity index (CC50/EC50) (HepDE19 cells): >7142
- solubility thermodynamic (Lysa solubility): > 710 µg/mL
- EC50 (HBV): 14 nM

Structure (SMILES): COC(=O)C1=C(CN2CCN3C(=O)N(C4CC4)C[C@@H]3[C@H]2C(=O)O)NC(c2nccs2)=N[C@H]1c1ccc(F)c(F)c1C (single isomer, unassigned) [Example 83B]
- Human Microsomal Clearance [1]: 2.9 mL/min/kg
- CC50 at 5 days [2]: > 100000 nM
- Selectivity index (CC50/EC50) (HepDE19 cells): >11111
- Lysa (Lysa solubility): 780 µg/mL
- EC50 (HBV): 9 nM

Structure (SMILES): CCOC(=O)C1=C(CN2CCN3C(=O)N(C(C)C)C[C@@H]3[C@H]2C(=O)O)NC(c2nccs2)=N[C@H]1c1cccc(F)c1Cl (single isomer, unassigned) [Example 84B]
- Human Microsomal Clearance [1]: 3.6 mL/min/kg
- CC50 at 5 days [2]: > 100000 nM
- Selectivity index (CC50/EC50) (HepDE19 cells): >100000
- Lysa (Lysa solubility): 770 µg/mL
- EC50 (HBV): 1 nM

Structure (SMILES): COC(=O)C1=C(CN2CCN3C(=O)N(C(C)C)C[C@@H]3[C@H]2C(=O)O)NC(c2nccs2)=N[C@H]1c1ccc(F)c(F)c1C (single isomer, unassigned) [Example 85B]
- CC50 at 5 days [2]: > 100000 nM
- Selectivity index (CC50/EC50) (HepDE19 cells): >16667
- Lysa (Lysa solubility): 770 µg/mL
- EC50 (HBV): 6 nM

Structure (SMILES): CCOC(=O)C1=C(CN2CCN3C(=O)N(CC(C)C)C[C@@H]3[C@H]2C(=O)O)NC(c2nccs2)=N[C@H]1c1cccc(F)c1Cl (single isomer, unassigned) [Example 101B]
- Human Microsomal Clearance [1]: 6.1 mL/min/kg
- CC50 at 5 days [2]: > 100000 nM
- Selectivity index (CC50/EC50) (HepDE19 cells): >100000
- EC50 (HBV): 0.8 nM

Structure (SMILES): CCOC(=O)C1=C(CN2CCN3C(=O)OC[C@@H]3[C@H]2C(=O)O)NC(c2nccs2)=N[C@H]1c1cccc(F)c1Cl (single isomer, unassigned) [Example 102B]
- Human Microsomal Clearance [1]: 6.2 mL/min/kg
- CC50 at 5 days [2]: > 100000 nM
- Selectivity index (CC50/EC50) (HepDE19 cells): >7142
- solubility thermodynamic (Lysa solubility): > 665 µg/mL
- EC50 (HBV): 14 nM

Structure (SMILES): COC(=O)C1=C(CN2CCN3C(=O)N(CC4(C(=O)O)CC4)C[C@@H]3C2)NC(c2nccs2)=N[C@H]1c1ccc(F)cc1Cl [Example 35, 1-[[(8aS)-7-[[(4R)-4-(2-chloro-4-fluoro-phenyl)-5-methoxycarbonyl-2-thiazol-2-yl-1,4-dihydropyrimidin-6-yl]methyl]-3-oxo-5,6,8,8a-tetrahydro-1H-imidazo[1,5-a]pyrazin-2-yl]methyl]cyclopropanecarboxylic acid]
- Human Microsomal Clearance [1]: 0.3 mL/min/kg
- CC50 at 5 days [2]: > 100000 nM
- Selectivity index (CC50/EC50) (HepDE19 cells): >9259
- solubility thermodynamic (Lysa solubility): > 754 µg/mL
- EC50 (HBV): 11 nM

Structure (SMILES): COC(=O)C1=C(CN2CCN3C(=O)N(CC(C)(C)C(=O)O)C[C@@H]3C2)NC(c2nccs2)=N[C@H]1c1cccc(F)c1Cl [Example 41, 3-[(8aS)-7-[[(4R)-4-(2-chloro-3-fluoro-phenyl)-5-methoxycarbonyl-2-thiazol-2-yl-1,4-dihydropyrimidin-6-yl]methyl]-3-oxo-5,6,8,8a-tetrahydro-1H-imidazo[1,5-a]pyrazin-2-yl]-2,2-dimethyl-propanoic acid]
- Human Microsomal Clearance [1]: 2.0 mL/min/kg
- CC50 at 5 days [2]: > 100000 nM
- Selectivity index (CC50/EC50) (HepDE19 cells): >7194
- solubility thermodynamic (Lysa solubility): > 804 µg/mL
- EC50 (HBV): 14 nM

Structure (SMILES): COC(=O)C1=C(CN2CCN3C(=O)N(CC(C)(C)C(=O)O)C[C@@H]3C2)NC(c2nccs2)=N[C@H]1c1cccc(F)c1C [Example 44, 3-[(8aS)-7-[[(4S)-4-(3-fluoro-2-methyl-phenyl)-5-methoxycarbonyl-2-thiazol-2-yl-1,4-dihydropyrimidin-6-yl]methyl]-3-oxo-5,6,8,8a-tetrahydro-1H-imidazo[1,5-a]pyrazin-2-yl]-2,2-dimethyl-propanoic acid]
- Human Microsomal Clearance [1]: 1.7 mL/min/kg
- CC50 at 5 days [2]: > 100000 nM
- Selectivity index (CC50/EC50) (HepDE19 cells): >6369
- solubility thermodynamic (Lysa solubility): 207 µg/mL (≈ 354 µM)
- EC50 (HBV): 16 nM

Structure (SMILES): CCOC(=O)C1=C(CN2CCN3C(=O)N(CC4(C(=O)O)CCC4)C[C@@H]3C2)NC(c2nccs2)=N[C@H]1c1cccc(F)c1Cl [Example 60, 6-[(S)-2-(1-Carboxy-cyclobutylmethyl)-3-oxo-hexahydro-imidazo[1,5-a]pyrazin-7-ylmethyl]-4-((R)-2-chloro-3-fluoro-phenyl)-2-thiazol-2-yl-1,4-dihydro-pyrimidine-5-carboxylic acid ethyl ester]
- CC50 at 5 days [2]: 68000 nM
- Selectivity index (CC50/EC50) (HepDE19 cells): 11333
- solubility thermodynamic (Lysa solubility): 436 µg/mL (≈ 691 µM)
- EC50 (HBV): 6 nM

Structure (SMILES): COC(=O)C1=C(CN2CCN3C(=O)N(Cc4ccc(C(=O)O)cc4)CC3C2)NC(c2nccs2)=N[C@H]1c1ccc(F)cc1Cl (stereo partly drawn) [Example 65, (R)-6-[2-(4-Carboxy-benzyl)-3-oxo-hexahydro-imidazo[1,5-a]pyrazin-7-ylmethyl]-4-(2-chloro-4-fluoro-phenyl)-2-thiazol-2-yl-1,4-dihydro-pyrimidine-5-carboxylic acid methyl ester]
- Human Microsomal Clearance [1]: 6.2 mL/min/kg
- CC50 at 5 days [2]: > 100000 nM
- Selectivity index (CC50/EC50) (HepDE19 cells): >11111
- solubility thermodynamic (Lysa solubility): 194 µg/mL (≈ 304 µM)
- EC50 (HBV): 9 nM

Structure (SMILES): CCOC(=O)C1=C(CN2CCN3C(=O)N(Cc4ccc(C(=O)O)cc4)CC3C2)NC(c2nccs2)=N[C@H]1c1cccc(F)c1Cl (stereo partly drawn) [Example 66, (R)-6-[2-(4-Carboxy-benzyl)-3-oxo-hexahydro-imidazo[1,5-a]pyrazin-7-ylmethyl]-4-(2-chloro-3-fluoro-phenyl)-2-thiazol-2-yl-1,4-dihydro-pyrimidine-5-carboxylic acid ethyl ester]
- Human Microsomal Clearance [1]: 7.1 mL/min/kg
- CC50 at 5 days [2]: 60000 nM
- Selectivity index (CC50/EC50) (HepDE19 cells): 15000
- EC50 (HBV): 4 nM

Structure (SMILES): CCOC(=O)C1=C(CN2CCN3C(=O)N(CC(C)(C)C(=O)O)C[C@@H]3C2)NC(c2nc(C)cs2)=N[C@H]1c1cccc(F)c1Cl [Example 98, 3-[(8aS)-7-[[(4R)-4-(2-chloro-3-fluoro-phenyl)-5-ethoxycarbonyl-2-(4-methylthiazol-2-yl)-1,4-dihydropyrimidin-6-yl]methyl]-3-oxo-5,6,8,8a-tetrahydro-1H-imidazo[1,5-a]pyrazin-2-yl]-2,2-dimethyl-propanoic acid]
- CC50 at 5 days [2]: 73000 nM
- Selectivity index (CC50/EC50) (HepDE19 cells): 6636
- EC50 (HBV): 11 nM
